Paper PMC11359794, “Amorphous Polymer–Phospholipid Solid Dispersions for the Co-Delivery of Curcumin and Piperine Prepared via Hot-Melt Extrusion” (Pharmaceutics, 2024)
In brackets after ≈: the same amount, converted by molar mass. Where two headings read alike, the source gives them in different places. Marks after values point to notes of the source that are not given here.

What was measured:
[1] = Differential scanning calorimetry (glass transition, glass-forming ability); type: physicochemical; conditions: heating–cooling–heating, different cooling rates; no crystallization during cooling and following heating
Description: A DSC 214 Polyma differential scanning calorimeter (Netzsch, Selb, Germany) was used for the thermal analysis. Samples of about 5–10 mg were put into crimped aluminum pans with a small hole in the lid. To remove water from the samples, they were heated to 80 °C and kept for 8 min at this temperature, cooled to 25 °C, and then heated again to 235 °C. Raw compounds were heated to 235 °C, cooled to 25 °C, and then heated once again to 235 °C to determine their glass transition temperature (Tg). […] The Tg was taken as the midpoint between onset and endpoint temperatures. Various heating–cooling–heating cycles were carried out to evaluate the glass-forming abilities.

[2] = Solubility studies (excess powder, 24 h, 25 °C, HPLC); type: physicochemical; conditions: for solubility at 24 h: 25 °C; for Solubility classification: based on solubility test at pH 1.2 and pH 6.8, crystalline compounds
Source text: HPLC was used to measure the concentrations of piperine and curcumin in samples taken during permeability, dissolution, and solubility investigations. A Shimadzu LC-2050C (Shimadzu Corp., Kyoto, Japan) was equipped with a diode array detector (DAD). A Dr. Maisch ReproSil-Pur Basic-C18 100 Å column with a 5 μm particle size and a 100 × 4.60 mm size (Dr. Maisch, Ammerbuch-Entringen, Germany) was used as a stationary phase. HPLC-grade methanol/0.1% acetic acid (85:15 v/v) was used as the mobile phase. The mobile phase was vacuum filtered through a 0.45 μm nylon filter (Phenomenex, Torrance, CA, USA). The analysis parameters were as follows: a flow rate of 0.3 mL/min, a wavelength of 420 nm for curcumin and 340 nm for piperine, and a column temperature of 30 °C. The injection volume differed depending on the assay. […] The duration of the run was 9 min. […] Chromatograms (Figure S1) and method validation parameters (Table S1) were added to the Supplementary Materials. The following steps were used to prepare phosphate buffer at pH 6.8: In a 1000 mL volumetric flask, 250 mL of 0.2 N potassium dihydrogen phosphate solution was added, followed by 112 mL of a 0.2 N sodium hydroxide solution. Purified water was added to make the volume up to 1000 mL. A hydrochloric acid solution with a pH of 1.2 was prepared according to the manufacturer's instructions ([…], Poznań, Poland) from the analytically weighed amount. A 10 mL glass tube was filled with an excess amount of powder (corresponding to 4 mg of each active substance). […] The obtained solutions were filtered, diluted 1:20 v/v with water, and filtered again through a 0.2 μm PTFE membrane filter (Sigma-Aldrich, St. Louis, MO, USA) and analyzed using the HPLC method described above.

[3] = PAMPA permeability assay, gastrointestinal tract (GIT) model; type: in vitro ADME; conditions: donor pH ≈6.8, 4 h, 37 °C
Source text: (§1) HPLC was used to measure the concentrations of piperine and curcumin in samples taken during permeability, dissolution, and solubility investigations. A Shimadzu LC-2050C (Shimadzu Corp., Kyoto, Japan) was equipped with a diode array detector (DAD). A Dr. Maisch ReproSil-Pur Basic-C18 100 Å column with a 5 µm particle size and a 100 × 4.60 mm size (Dr. Maisch, Ammerbuch-Entringen, Germany) was used as a stationary phase. HPLC-grade methanol/0.1% acetic acid (85:15 v/v) was used as the mobile phase. The mobile phase was vacuum filtered through a 0.45 µm nylon filter (Phenomenex, Torrance, CA, USA). The analysis parameters were as follows: a flow rate of 0.3 mL/min, a wavelength of 420 nm for curcumin and 340 nm for piperine, and a column temperature of 30 °C. The injection volume differed depending on the assay. […] The duration of the run was 9 min. […] Chromatograms (Figure S1) and method validation parameters (Table S1) were added to the Supplementary Materials. The Parallel Artificial Membrane Permeability Assay (PAMPA) models were used to study the permeability of the blood-brain barrier (BBB) and the gastrointestinal tract (GIT) in vitro. Two 96-well microfilter plates formed the sandwich. There were two chambers in the PAMPA system: the acceptor chamber at the top and the donor chamber at the bottom. […]

[4] = PAMPA permeability assay, blood-brain barrier (BBB) model; type: in vitro ADME; conditions: donor pH ≈7.4, 4 h, 37 °C
Source text: as §1

[5] = cited from earlier work

Compound	Glass-forming ability [1]	solubility at 24 h ([2]; HCl solution, pH 1.2 HCl, read-out: Solubility, Curcumin Conc.)	Solubility classification [2]	Permeability, Curcumin Conc. in the acceptor solution [3]	Permeability, Curcumin Conc. in the acceptor solution [4]	Log P [5]	solubility at 24 h ([2]; HCl solution, simulated gastric fluid, thermodynamic from solid, pH 1.2 HCl, read-out: Solubility, Piperine Conc.)	solubility at 24 h ([2]; aqueous buffer, thermodynamic from solid, pH 6.8 phosphate buffer, read-out: Solubility, Piperine Conc.)	Permeability, Piperine Conc. in the acceptor solution [3]	Permeability, Piperine Conc. in the acceptor solution [4]
COc1cc(/C=C/C(=O)CC(=O)/C=C/c2ccc(O)c(OC)c2)ccc1O [Curcumin]	good glass-forming ability	0.11 ± 0.01 µg/mL (≈ 0.299 µM)	practically insoluble	0.00061 ± 0.000038 ^g mg/mL	0.00016 ± 0.000057 ^f mg/mL	–	–	–	–	–
O=C(/C=C/C=C/c1ccc2c(c1)OCO2)N1CCCCC1 [Piperine]	good glass-forming ability	–	practically insoluble	–	–	2.78	9 ± 0.6 µg/mL (≈ 31.5 µM)	8 ± 0.4 µg/mL (≈ 28 µM)	0.0044 ± 0.0008 ^g mg/mL	0.0051 ± 0.0003 ^f mg/mL
